Laboratory results as given in patent US20060069132A1, “Azolecarboxamide herbicides” (priority 2004, published 2006).

Assays:
lambsquarters = experiment: Test B pre-/postemergence herbicide test; assay type: in vivo, Chenopodium album; settings: postemergence
Summary of the method: (§1)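 Herbicidal effect was judged by eye on a 0–100 scale after plants stood 13 to 15 days in the greenhouse following pre- or postemergence treatment with surfactant-containing formulations.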

velvetleaf [1] = experiment: Test B pre-/postemergence herbicide test; assay type: in vivo, Abutilon theophrasti; settings: for Velvetleaf plant response rating: postemergence
Summary of the method: as §1

morningglory [2] = experiment: Test B pre-/postemergence herbicide test; assay type: in vivo, Ipomoea coccinea; settings: for Morningglory plant response rating: postemergence
Summary of the method: as §1

pigweed = experiment: Test B pre-/postemergence herbicide test; assay type: in vivo, Amaranthus retroflexus; settings: for Pigweed plant response rating: postemergence
Summary of the method: as §1

[3] = system: small flower umbrella sedge; experiment: Test B flooded paddy test; assay type: in vivo, Cyperus difformis; settings: 1000 g ai/ha, scale 0 to 100 (0 no effect, 100 complete control)
Summary of the method: (§2)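 Treated at 2-leaf (paddy) or 1–4-leaf, 2–18 cm (postemergence); greenhouse 13–15 d; visual score vs control, 0 none to 100 complete control; dash = not tested.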

cocklebur = experiment: Test B pre-/postemergence herbicide test; assay type: in vivo, Xanthium strumarium; settings: for Cocklebur plant response rating: postemergence
Summary of the method: as §1

wild oat = experiment: Test B postemergence herbicide test; assay type: in vivo, Avena fatua; settings: postemergence
Summary of the method: (§3)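 After treating 2-leaf paddy plants or 2–18 cm postemergence plants (1 to 4 leaves) with formulated chemical, researchers kept them in a greenhouse for 13–15 days. Effects were judged visually versus controls: 0 indicates none, 100 total control.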

velvetleaf [4] = experiment: Test A pre-/postemergence herbicide test; assay type: in vivo, Abutilon theophrasti
Summary of the method: (§4)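 Visual injury rating on a 0–100 scale (0 no effect, 100 complete control) versus untreated controls, about ten days after treatment in greenhouse. Pre: directed soil spray onto seeded sandy loam. Post: spray to runoff on plants 2–10 cm tall at one- to two-leaf stage.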

blackgrass = experiment: Test B postemergence herbicide test; assay type: in vivo, Alopecurus myosuroides; settings: postemergence
Summary of the method: as §2

corn = experiment: Test B pre-/postemergence herbicide test; assay type: in vivo, Zea mays; settings: for Corn plant response rating: postemergence
Summary of the method: as §1

large crabgrass [5] = experiment: Test A pre-/postemergence herbicide test; assay type: in vivo, Digitaria sanguinalis
Summary of the method: as §4

large crabgrass [6] = experiment: Test B pre-/postemergence herbicide test; assay type: in vivo, Digitaria sanguinalis; settings: for Crabgrass, Large plant response rating: postemergence
Summary of the method: as §1

morningglory [7] = experiment: Test A pre-/postemergence herbicide test; assay type: in vivo, Ipomoea spp.
Summary of the method: as §4

wheat = experiment: Test B postemergence herbicide test; assay type: in vivo, Triticum aestivum; parameters: key to Wheat plant response rating: 0 = no effect, 100 = complete control; settings: postemergence
Summary of the method: as §3

rice [8] = experiment: Test B flooded paddy test; assay type: in vivo, Oryza sativa; settings: 1000 g ai/ha, scale 0 to 100 (0 no effect, 100 complete control)
Summary of the method: as §2

redroot pigweed = experiment: Test A pre-/postemergence herbicide test; assay type: in vivo, Amaranthus retroflexus
Summary of the method: as §4

rice [9] = experiment: Test B pre-/postemergence herbicide test; assay type: in vivo, Oryza sativa; settings: 0 = no effect, 100 = complete control, preemergence
Summary of the method: as §1

giant foxtail [10] = experiment: Test B pre-/postemergence herbicide test; assay type: in vivo, Setaria faberi; settings: for Foxtail, Giant plant response rating: postemergence
Summary of the method: as §1

ducksalad = experiment: Test B flooded paddy test; assay type: in vivo, Heteranthera limosa; settings: 1000 g ai/ha, scale 0 to 100 (0 no effect, 100 complete control)
Summary of the method: as §2

barnyardgrass [11] = experiment: Test B flooded paddy test; assay type: in vivo, Echinochloa crus-galli; settings: 1000 g ai/ha, scale 0 to 100 (0 no effect, 100 complete control)
Summary of the method: as §2

Surinam grass = experiment: Test B pre-/postemergence herbicide test; assay type: in vivo, Urochloa decumbens; settings: for Surinam Grass plant response rating: postemergence
Summary of the method: as §1

giant foxtail [12] = experiment: Test A pre-/postemergence herbicide test; assay type: in vivo, Setaria faberi
Summary of the method: as §4

barnyardgrass [13] = experiment: Test A pre-/postemergence herbicide test; assay type: in vivo, Echinochloa crus-galli
Summary of the method: as §4

barnyardgrass [14] = experiment: Test B pre-/postemergence herbicide test; assay type: in vivo, Echinochloa crus-galli; settings: for Barnyardgrass plant response rating: postemergence
Summary of the method: as §1

[15] = 125 g ai/ha, visual rating, scale 0 (no effect) to 100 (complete control)
[16] = 500 g ai/ha, scale 0 to 100, 0 is no effect, 100 is complete control
[17] = 125 g ai/ha, 0 = no effect, 100 = complete control, preemergence
[18] = 500 g ai/ha, visual rating, 0 = no effect, 100 = complete control, preemergence
[19] = Postemergence, 500 g ai/ha, 0 to 100 scale, 0 no effect, 100 complete control
[20] = Postemergence, 2000 g ai/ha, 0 to 100 scale, 0 no effect, 100 complete control
[21] = Preemergence, 2000 g ai/ha, visual rating, 0 to 100 scale (0 no effect, 100 complete control)
[22] = preemergence, 500 g ai/ha, visual injury, 0 to 100 scale (0 no effect, 100 complete control)

CCn1nc(C(C)(C)C)cc1C(=O)Nc1cc(C(=O)N(C)C)c(F)cc1F [Compound 270]
50: Velvetleaf plant response rating (0 to 100 scale) (velvetleaf [1]; [17]) | Plant response rating, Corn (corn; [18]) | Plant response rating, Foxtail, Giant (giant foxtail [10]; [18]) | Barnyardgrass plant response rating (barnyardgrass [11]) | Plant response rating, Barnyardgrass (barnyardgrass [14]; [18])
5: Crabgrass, Large plant response rating (large crabgrass [5]; [22])
25: Plant response rating, Velvetleaf (velvetleaf [4]; [20])
0: Lambsquarters plant response rating (lambsquarters; [15]) | Velvetleaf plant response rating (velvetleaf [1]; [15]) | Velvetleaf plant response rating (velvetleaf [1]; [16]) | Morningglory plant response rating (0 to 100 scale) (morningglory [2]; [17]) | Plant response rating, Morningglory (morningglory [2]; [18]) | Morningglory plant response rating (morningglory [2]; [15]) | Pigweed plant response rating (0 to 100 scale) (pigweed; [17]) | Pigweed plant response rating (pigweed; [15]) | Pigweed plant response rating (pigweed; [16]) | Cocklebur plant response rating (0 to 100 scale) (cocklebur; [17]) | Plant response rating, Cocklebur (cocklebur; [18]) | Cocklebur plant response rating (cocklebur; [15]) | Cocklebur plant response rating (cocklebur; [16]) | Oat, Wild plant response rating (wild oat; [15]) | Oat, Wild plant response rating (wild oat; [16]) | Blackgrass plant response rating (blackgrass; [15]) | Corn plant response rating (0 to 100 scale) (corn; [17]) | Corn plant response rating (corn; [15]) | Crabgrass, Large plant response rating (large crabgrass [5]; [19]) | Crabgrass, Large plant response rating (0 to 100 scale) (large crabgrass [6]; [17]) | Crabgrass, Large plant response rating (large crabgrass [6]; [15]) | Crabgrass, Large plant response rating (large crabgrass [6]; [16]) | Morningglory plant response rating (morningglory [7]; [22]) | Wheat plant response rating (wheat; [15]) | Wheat plant response rating (wheat; [16]) | Plant response rating, Pigweed (redroot pigweed; [20]) | Rice plant response rating (0 to 100 scale) (rice [9]; 125 g ai/ha) | Foxtail, Giant plant response rating (0 to 100 scale) (giant foxtail [10]; [17]) | Foxtail, Giant plant response rating (giant foxtail [10]; [15]) | Foxtail, Giant plant response rating (giant foxtail [10]; [16]) | Surinam Grass plant response rating (0 to 100 scale) (Surinam grass; [17]) | Surinam Grass plant response rating (Surinam grass; [15]) | Foxtail, Giant plant response rating (giant foxtail [12]; [19]) | Plant response rating, Foxtail, Giant (giant foxtail [12]; [20]) | Barnyardgrass plant response rating (barnyardgrass [13]; [19]) | Barnyardgrass plant response rating (0 to 100 scale) (barnyardgrass [14]; [17]) | Barnyardgrass plant response rating (barnyardgrass [14]; [15]) | Barnyardgrass plant response rating (barnyardgrass [14]; [16])
20: Blackgrass plant response rating (blackgrass; [16]) | Plant response rating, Crabgrass, Large (large crabgrass [6]; [18]) | Morningglory plant response rating (morningglory [7]; [19]) | Plant response rating, Morningglory (morningglory [7]; [20]) | Pigweed plant response rating (redroot pigweed; [19]) | Plant response rating, Surinam Grass (Surinam grass; [18]) | Foxtail, Giant plant response rating (giant foxtail [12]; [22])
35: Crabgrass, Large plant response rating (large crabgrass [5]; [21])
15: Velvetleaf plant response rating (velvetleaf [4]; [19]) | Pigweed plant response rating (redroot pigweed; [22])
60: Sedge, Umbrella plant response rating [3] | Plant response rating, Rice (rice [9]; 500 g ai/ha, visual rating) | Barnyardgrass plant response rating (barnyardgrass [13]; [22])
85: Pigweed plant response rating (redroot pigweed; [21])
90: Barnyardgrass plant response rating (barnyardgrass [13]; [21])
30: Velvetleaf plant response rating (velvetleaf [4]; [22]) | Morningglory plant response rating (morningglory [7]; [21]) | Plant response rating, Barnyardgrass (barnyardgrass [13]; [20])
10: Lambsquarters plant response rating (lambsquarters; [16]) | Morningglory plant response rating (morningglory [2]; [16]) | Corn plant response rating (corn; [16]) | Plant response rating, Crabgrass, Large (large crabgrass [5]; [20]) | Surinam Grass plant response rating (Surinam grass; [16])
70: Plant response rating, Velvetleaf (velvetleaf [1]; [18]) | Rice plant response rating (rice [8]) | Ducksalad plant response rating (ducksalad) | Foxtail, Giant plant response rating (giant foxtail [12]; [21])
55: Velvetleaf plant response rating (velvetleaf [4]; [21])
